This assay has as its system SARS-CoV-2. Kind of assay: Pirfenidone and nintedanib therapy during post-acute phase in patients with severe SARS2 lung damage (Example 3). The format is in vivo, human. The settings on record: one patient. An excerpt:
Pirfenidone and Nintedanib therapy during the post-acute phase mitigates functional and structural lung loss, preserves lung function and structure, and can improve lung capacity and exertional tolerance in patients previously infected SARS2 with significant pulmonary functional and structural loss as a result of their severe infections. This transition period can be determined in any number of ways including but not limited to laboratory, blood serum, urine, fecal, sputum, bronchial lavage, imaging, genomic or tissue-based testing. These patients can also be characterized in one embodiment as those patients with prolonged hospitalization due to lung disease, prolonged ventilation, course of ECMO, high peaks during hospitalization 1.5 times above the upper of normal for LDH, or Ferritin, or CRP, >30% loss in pulmonary capacity or pulmonary reserve, significant scarring and/or fibrosis seen by CT imaging, MRI, PET imaging or chest x-ray, significant reductions in physiological and functional measures as assessed by the objective physiologic and functional assessments described above, and/or a progressive or worsening pattern of any of such measures over time. During this period, pharmacologic agents and combinations as disclosed herein can be administered to limit, contain, or restrain or reduce such damage and limit the progression of severe SARS2 associated lung damage as described above both physiologically functionally and structurally. A patient with severe clinical COVID symptoms and severe lung damage, and >40% loss of pulmonary reserve by objective testing was treated with pirfenidone starting 1 month after discharge. […] A similar patient was treated with a 50% loss of pulmonary reserve.

Where [1] appears, read: severe COVID, >40% loss of pulmonary reserve, treatment from 1 month after discharge, at 3 months.

For `COC(=O)c1ccc2c(c1)NC(=O)/C2=C(\Nc1ccc(N(C)C(=O)CN2CCN(C)CC2)cc1)c1ccccc1` [nintedanib], the “structural and physiologic declines” value (50% loss of pulmonary reserve, initiated two months post-discharge, at 4 months) is “stabilized and arrested”.
`Cc1ccc(=O)n(-c2ccccc2)c1` [pirfenidone]: under setting [1], the PFTs entry is recorded as “improvement” and the “progression of structural lung damage by high-resolution CT (HRCT) imaging” value is given as “reduction in progression”.

For the origin of these results see patent US11160814B1, “Methods of treatment for disease from coronavirus exposure” (Ensemble Group Holdings, priority 2020, dated 2021).
